Experimental data: ChEMBL document CHEMBL1144614, “Darpones and water-soluble aminobutoxylated darpone derivatives are distinguished by matrix COMPARE analysis” (Bioorg Med Chem Lett, 2007)

Legend:
[1] = system: HCT-15; assay: Growth inhibition of HCT15 cells; assay type: functional; details: Homo sapiens
[2] = Solubility in phosphate buffer at pH 4.5; assay type: physicochemical

Compound	GI50 [1] [µM]	solubility [2] [µg/mL]
COc1ccc(-c2cc(-c3cccc(Cl)c3)nc3c2CC(=O)Nc2ccccc2-3)cc1	1.9	
O=C1Cc2c(-c3ccccc3)cc(-c3cccc(Cl)c3)nc2-c2ccccc2N1	2.7	
COc1ccc2c(c1)NC(=O)Cc1c(-c3ccccc3)cc(-c3cccc(Cl)c3)nc1-2	> 100	
COc1ccc(-c2cc(-c3ccccc3)c3c(n2)-c2ccccc2NC(=O)C3)cc1Cl	3	
Cl.NCCCCOc1ccc(-c2cc(-c3ccccc3)c3c(n2)-c2ccccc2NC(=O)C3)cc1Cl	13.8	< 5
Cl.O=C1Cc2c(-c3ccccc3)cc(-c3ccc(OCCCCN4CCOCC4)c(Cl)c3)nc2-c2ccccc2N1	2.3	5
Cl.NCCCCOc1ccc(-c2cc(-c3cccc(Cl)c3)nc3c2CC(=O)Nc2ccccc2-3)cc1	6.6	< 5

Molecules with a lower GI50 [1], results first:

GI50 [1] [µM]	solubility [2] [µg/mL]	Compound
0.87	< 5	CN1CCN(CCCCOc2ccc(-c3cc(-c4ccccc4)c4c(n3)-c3ccccc3NC(=O)C4)cc2Cl)CC1.Cl.Cl
0.81	> 500	CN1CCN(CCCCOc2ccc3c(c2)NC(=O)Cc2c(-c4ccccc4)cc(-c4cccc(Cl)c4)nc2-3)CC1.Cl.Cl
0.91	> 500	CN1CCN(CCCCOc2ccc(-c3cc(-c4cccc(Cl)c4)nc4c3CC(=O)Nc3ccccc3-4)cc2)CC1.Cl.Cl
1.2	> 500	Cl.O=C1Cc2c(-c3ccc(OCCCCN4CCOCC4)cc3)cc(-c3cccc(Cl)c3)nc2-c2ccccc2N1
1.6	> 500	Cl.O=C1Cc2c(-c3ccccc3)cc(-c3cccc(Cl)c3)nc2-c2ccc(OCCCCN3CCOCC3)cc2N1
1.8	< 5	Cl.NCCCCOc1ccc2c(c1)NC(=O)Cc1c(-c3ccccc3)cc(-c3cccc(Cl)c3)nc1-2
